System: CT26 syngenic subcutaneous colon cancer model
Assay: Antitumor activity of MBS8 micelles in combination with doxorubicin or doxil in the CT26 model
Type: in vivo, mice
Settings: mono chemotherapy 4 mg/kg i.v. q4d x3
Description: Randomisation of mice and treatment started when tumors reached an average volume of 100 mm^3 (Day 0). […] All drugs were administered by intravenous bolus. Doxorubicin or doxil were given q4d, total of 3 injections. […] Growth of tumors was measured twice a week.

## COc1cccc2c1C(=O)c1c(O)c3c(c(O)c1C2=O)C[C@@](O)(C(=O)CO)C[C@@H]3O[C@H]1C[C@H](N)[C@H](O)[C@H](C)O1 [doxorubicin]
  complete responders: no complete responders
